Results from US20240327359A1, “3-ISOXAZOLIDINONE COMPOUND, PREPARATION METHOD, HERBICIDAL COMPOSITION AND APPLICATION THEREOF” (QINGDAO KINGAGROOT CHEMICAL COMPOUND CO., LTD., priority 2021, published 2024).
Where two headings read alike, the source gives them in different places.

Tested on: weeds
Assay: Activity test of the compositions, soil sealing treatment
Assay type: in vivo
Conditions: for pest or weed control at 6 g/ha: B 0.4 g a.i./mu; for pest or weed control at 12 g/ha: B 0.8 g a.i./mu
Experimental: The desired active ingredient B was purchased from a reagent company or synthesized by a known method. The technical materials were all dissolved in acetone and diluted with an aqueous solution containing 0.10% emulsifier Tween-80 which were to be used immediately after dilution.
Weeds are cultivated in a controllable sunlight greenhouse at 20 to 30° C., in natural light, and with relative humidity of 57% to 72%. […] The test soil was filled quantitatively to ¾ of the pots and then watered from the bottom of the pots to completely wet the soil to saturation. The test weed seeds were accelerated to just germinate, and then evenly and quantitatively sowed on the surface, then covered with 0.5-1 cm soil according to the seed size, and ready for use 72 hours after sowing.
Each treatment was repeated 4 times. Four pots with 20 weed seeds per pot were treated each time.
The well-sowed test materials were evenly placed on a platform with an area of 0.5 m^2, and solution of agents was sprayed on the soil by the 3WP-2000-type walking spray tower at a dosage of 450 kg/ha and at a spray pressure of 0.3 MPa. After all the solution was sprayed, the valve was closed. After 30 seconds, the door of the spray tower was opened, and the nutritional bowl was taken out. Then the valve was opened, and the spray tube was cleaned by spraying 50 ml of water.
A method for investigating absolute numbers was employed. Whole seedlings of survival weeds were cut off with a blade along the soil surface, and the fresh weight of the weeds was weighed with an analytical balance. For dead weeds, the fresh weight thereof was zero.
The investigation was performed 21 days after the treatment for only once in total.

[1] = Echinochloa crus-galli, Echinochloa crusgalli, soil (S), B 0.5 g a.i./mu, read-out: Control effect (%) of B applied alone (B)
[2] = Echinochloa crus-galli, Echinochloa crusgalli, soil (S), B 1 g a.i./mu, read-out: Control effect (%) of B applied alone (B)
[3] = Echinochloa crus-galli, Echinochloa crusgalli, soil (S), B 2 g a.i./mu, read-out: Control effect (%) of B applied alone (B)
[4] = Echinochloa crus-galli, Echinochloa crusgalli, soil (S), read-out: Control effect (%) of B applied alone (B)
[5] = Lolium multiflorum, soil (S), B 20 g a.i./mu, read-out: Control effect (%) of B applied alone (B)
[6] = Lolium multiflorum, soil (S), B 40 g a.i./mu, read-out: Control effect (%) of B applied alone (B)
[7] = Lolium multiflorum, soil, read-out: Control effect (%) of B applied alone (B)
[8] = Echinochloa crus-galli, soil, read-out: Control effect (%) of B applied alone (B)
[9] = Cyperus difformis, soil (S), B 0.5 g a.i./mu, read-out: Control effect (%) of B applied alone (B)
[10] = Echinochloa crusgalli, soil (S), B 2 g a.i./mu
[11] = Echinochloa crusgalli, soil (S), B 4 g a.i./mu
[12] = Echinochloa crus-galli, Echinochloa crusgalli, soil (S), B 16 g a.i./mu, read-out: Control effect (%) of B applied alone (B)
[13] = Echinochloa crus-galli, Echinochloa crusgalli, soil (S), B 32 g a.i./mu, read-out: Control effect (%) of B applied alone (B)
[14] = Lolium multiflorum, soil (S), B 16 g a.i./mu, read-out: Control effect (%) of B applied alone (B)
[15] = Lolium multiflorum, soil (S), B 32 g a.i./mu, read-out: Control effect (%) of B applied alone (B)
[16] = Echinochloa crus-galli, Echinochloa crusgalli, soil (S), B 6 g a.i./mu, read-out: Control effect (%) of B applied alone (B)
[17] = Echinochloa crus-galli, Echinochloa crusgalli, soil (S), B 12 g a.i./mu, read-out: Control effect (%) of B applied alone (B)
[18] = Lolium multiflorum, soil (S), read-out: Control effect (%) of B applied alone (B)

COC(=O)[C@@H](C)O/N=C/c1cc(-n2c(=O)cc(C(F)(F)F)n(C)c2=O)c(F)cc1Cl
pest or weed control at 7.5 g/ha [1]: 31.5%
pest or weed control at 15 g/ha [2]: 42.3%

COC(=O)C12ON=C(c3cc(-n4c(=O)cc(C(F)(F)F)n(C)c4=O)c(F)cc3Cl)C1CCC2C (stereo not drawn)
pest or weed control at 15 g/ha [2]: 40.2%
pest or weed control at 30 g/ha [3]: 53.1%

Cc1ccccc1CO[C@@H]1C[C@@]2(C(C)C)CC[C@]1(C)O2 (racemic) [cinmethylin]
pest or weed control at 6 g/ha [4]: 26.4%
pest or weed control at 12 g/ha [4]: 38.6%

CC(C)CCCCCOC(=O)COc1ccc(Cl)cc1Cl [2,4-D isooctyl ester]
Control effect (%) of B applied alone (B) (Veronica didyma, soil (S), B 6 g a.i./mu): 33.6%
Control effect (%) of B applied alone (B) (Veronica didyma, soil (S), B 12 g a.i./mu): 42.5%

CCOCN(C(=O)CCl)c1c(C)cccc1CC [acetochlor]
pest or weed control at 180 g/ha (Lolium multiflorum, soil (S), B 12 g a.i./mu, read-out: Control effect (%) of B applied alone (B)): 36.5%
pest or weed control at 360 g/ha (Lolium multiflorum, soil (S), B 24 g a.i./mu, read-out: Control effect (%) of B applied alone (B)): 45.7%

Nc1c([N+](=O)[O-])ccc(Oc2ccccc2)c1Cl [aclonifen]
pest or weed control at 300 g/ha [5]: 31.6%
pest or weed control at 600 g/ha [6]: 52.1%

CCNc1nc(NC(C)C)nc(SC)n1 [ametryne]
pest or weed control at 300 g/ha [7]: 18.1%
pest or weed control at 600 g/ha [7]: 31.6%

COP(=S)(OC)SCC(=O)N(c1ccc(Cl)cc1)C(C)(C)C [anilofos]
pest or weed control at 30 g/ha [8]: 23.1%
pest or weed control at 60 g/ha [8]: 32.6%

CCNc1nc(Cl)nc(NC(C)C)n1 [atrazine]
pest or weed control at 300 g/ha [5]: 18.9%
pest or weed control at 600 g/ha [6]: 36.6%

CCC(Oc1ccc(F)c(C(F)(F)F)c1)C(=O)NCc1ccccc1 (stereo not drawn) [beflubutamid]
Control effect (%) of B applied alone (B) (Veronica didyma, soil (S), B 1 g a.i./mu): 42.6%
Control effect (%) of B applied alone (B) (Veronica didyma, soil (S), B 2 g a.i./mu): 57.9%

COC(=O)c1ccccc1CS(=O)(=O)NC(=O)Nc1nc(OC)cc(OC)n1 [bensulfuron-methyl]
pest or weed control at 7.5 g/ha [9]: 42.6%
pest or weed control at 15 g/ha (Cyperus difformis, soil (S), B 1 g a.i./mu, read-out: Control effect (%) of B applied alone (B)): 55.8%

CS(=O)(=O)c1ccc(C(=O)C2=C(Sc3ccccc3)C3CCC(C3)C2=O)c(Cl)c1 (stereo not drawn) [benzobicyclon]
Control effect (%) of B applied alone (B) [10]: 22.6%
Control effect (%) of B applied alone (B) [11]: 42.8%

CC(C)(NC(=O)C(Br)C(C)(C)C)c1ccccc1 (stereo not drawn) [bromobutide]
pest or weed control at 240 g/ha [12]: 37.3%
pest or weed control at 480 g/ha [13]: 53.6%

CCCCOCN(C(=O)CCl)c1c(CC)cccc1CC [butachlor]
pest or weed control at 240 g/ha [14]: 28.8%
pest or weed control at 480 g/ha [15]: 46.4%

CCC(C)Nc1c([N+](=O)[O-])cc(C(C)(C)C)cc1[N+](=O)[O-] (stereo not drawn) [butralin]
pest or weed control at 240 g/ha [7]: 19.5%
pest or weed control at 480 g/ha [7]: 35.8%

Cc1ccc(NC(=O)N(C)C)cc1Cl [chlorotoluron]
pest or weed control at 225 g/ha (Alopecurus japonicus, soil (S), B 15 g a.i./mu, read-out: Control effect (%) of B applied alone (B)): 34.2%
pest or weed control at 450 g/ha (Alopecurus japonicus, soil (S), B 30 g a.i./mu, read-out: Control effect (%) of B applied alone (B)): 58.3%

O=C(Nc1ccc(F)cc1F)c1cccnc1Oc1cccc(C(F)(F)F)c1 [diflufenican]
pest or weed control at 15 g/ha (Lolium multiflorum, soil (S), B 1 g a.i./mu, read-out: Control effect (%) of B applied alone (B)): 37.1%
pest or weed control at 30 g/ha (Lolium multiflorum, soil (S), B 2 g a.i./mu, read-out: Control effect (%) of B applied alone (B)): 52.4%

COC[C@H](C)N(C(=O)CCl)c1c(C)csc1C [dimethenamid-P]
Control effect (%) of B applied alone (B) [11]: 34.2%
Control effect (%) of B applied alone (B) (Echinochloa crusgalli, soil (S), B 8 g a.i./mu): 47.5%

COCC(C)N(C(=O)CCl)c1c(C)csc1C (stereo not drawn) [dimethenamid]
pest or weed control at 90 g/ha [16]: 31.5%
pest or weed control at 180 g/ha [17]: 43.7%

CSC(=O)c1c(C(F)F)nc(C(F)(F)F)c(C(=O)SC)c1CC(C)C [dithiopyr]
pest or weed control at 60 g/ha (Echinochloa crus-galli, Echinochloa crusgalli, soil (S), B 4 g a.i./mu, read-out: Control effect (%) of B applied alone (B)): 40.1%
pest or weed control at 120 g/ha (Echinochloa crus-galli, Echinochloa crusgalli, soil (S), B 8 g a.i./mu, read-out: Control effect (%) of B applied alone (B)): 53.2%

CN(C)C(=O)Nc1ccc(Cl)c(Cl)c1 [diuron]
pest or weed control at 600 g/ha [7]: 39.4%
pest or weed control at 1200 g/ha [7]: 65.3%

CCOC(=O)COc1ncccc1Oc1cc(-n2c(=O)cc(C(F)(F)F)n(C)c2=O)c(F)cc1Cl [epyrifenacil]
Control effect (%) of B applied alone (B) (Amaranthus retroflexus, soil (S), B 0.5 g a.i./mu): 36.9%
Control effect (%) of B applied alone (B) (Amaranthus retroflexus, soil (S), B 1 g a.i./mu): 47.1%

CCOc1ccccc1OS(=O)(=O)NC(=O)Nc1nc(OC)cc(OC)n1 [ethoxysulfuron]
pest or weed control at 3.75 g/ha (Cyperus difformis, soil (S), B 0.25 g a.i./mu, read-out: Control effect (%) of B applied alone (B)): 44.6%
pest or weed control at 7.5 g/ha [9]: 58.4%

COc1ccc(-n2c(=O)c(C(=O)C3C(=O)CCCC3=O)nc3c(Cl)cccc32)cc1 [fenquinotrione]
Control effect (%) of B applied alone (B) (Lolium multiflorum, soil (S), B 1.5 g a.i./mu): 28.6%
Control effect (%) of B applied alone (B) (Lolium multiflorum, soil (S), B 3 g a.i./mu): 44.1%

CCN(C(=O)n1nnn(-c2ccccc2Cl)c1=O)C1CCCCC1 [fentrazamide]
pest or weed control at 240 g/ha [12]: 32.5%
pest or weed control at 480 g/ha [13]: 50.8%

CC(C)N(C(=O)COc1nnc(C(F)(F)F)s1)c1ccc(F)cc1 [flufenacet]
pest or weed control at 90 g/ha [16]: 29.8%
pest or weed control at 180 g/ha [17]: 37.5%

C#CCN1C(=O)COc2cc(F)c(N3C(=O)C4=C(CCCC4)C3=O)cc21 [flumioxazin]
pest or weed control at 7.5 g/ha [1]: 32.8%
pest or weed control at 15 g/ha [2]: 45.1%

O=C1C(Cl)C(CCl)CN1c1cccc(C(F)(F)F)c1 (stereo not drawn) [flurochloridone]
pest or weed control at 60 g/ha (Veronica polita, Veronica didyma, soil (S), B 4 g a.i./mu, read-out: Control effect (%) of B applied alone (B)): 45.1%
pest or weed control at 120 g/ha (Veronica polita, Veronica didyma, soil (S), B 8 g a.i./mu, read-out: Control effect (%) of B applied alone (B)): 60.8%

COc1cc(OC)nc(NC(=O)NS(=O)(=O)c2c(C(=O)O)c(Cl)nn2C)n1 [halosulfuron]
pest or weed control at 7.5 g/ha (Veronica polita, Veronica didyma, soil (S), B 0.5 g a.i./mu, read-out: Control effect (%) of B applied alone (B)): 34.8%
pest or weed control at 15 g/ha (Veronica polita, Veronica didyma, soil (S), B 1 g a.i./mu, read-out: Control effect (%) of B applied alone (B)): 54.6%

COCc1cnc(C2=NC(C)(C(C)C)C(=O)N2)c(C(=O)O)c1 (stereo not drawn) [imazamox]
pest or weed control at 6 g/ha [18]: 25.4%
pest or weed control at 12 g/ha [18]: 42.7%

CCc1cnc(C2=NC(C)(C(C)C)C(=O)N2)c(C(=O)O)c1 (stereo not drawn) [imazethapyr]
pest or weed control at 15 g/ha [2]: 33.4%
pest or weed control at 30 g/ha [3]: 43.8%

CC(C)N(C(=O)n1cnn(-c2ccc(Cl)cc2Cl)c1=O)c1ccc(F)cc1F [ipfencarbazone]
Control effect (%) of B applied alone (B) [10]: 41.5%
Control effect (%) of B applied alone (B) [11]: 57.6%

CC(C)c1ccc(NC(=O)N(C)C)cc1 [isoproturon]
pest or weed control at 120 g/ha (Alopecurus japonicus, soil (S), B 8 g a.i./mu, read-out: Control effect (%) of B applied alone (B)): 41.5%
pest or weed control at 240 g/ha (Alopecurus japonicus, soil (S), B 16 g a.i./mu, read-out: Control effect (%) of B applied alone (B)): 53.6%

CS(=O)(=O)c1cc(C(F)(F)F)ccc1C(=O)c1cnoc1C1CC1 [isoxaflutole]
pest or weed control at 15 g/ha [2]: 26.4%
pest or weed control at 30 g/ha [3]: 44.3%

CN(C(=O)COc1nc2ccccc2s1)c1ccccc1 [mefenacet]
pest or weed control at 240 g/ha [14]: 18.5%
pest or weed control at 480 g/ha [15]: 38.3%

COc1cc(OC)nc(NC(=O)NS(=O)(=O)c2c(C3=NOCC(C)O3)c(Cl)nn2C)n1 (stereo not drawn) [metazosulfuron]
Control effect (%) of B applied alone (B) (Echinochloa crusgalli, soil (S), B 0.75 g a.i./mu): 32.4%
Control effect (%) of B applied alone (B) (Echinochloa crusgalli, soil (S), B 1.5 g a.i./mu): 41.6%
